The numbers were not newly measured in patent US9585842B2, “Sustained release guanfacine HCL formulation” (SALMON PHARMA GMBH, priority 2013, dated 2017), which cites them from elsewhere.

Counter-ions that a name gives are not always drawn.

The conditions of this data set: low pH versus higher pH values.

As for `N=C(N)NC(=O)Cc1c(Cl)cccc1Cl` [Guanfacine hydrochloride], the pH dependent solubility entry was “more soluble at low pH values than higher pH values”.
